In ChEMBL document CHEMBL3045923, “Using a selectivity index to evaluate logarithmic spraying in grass seed crops” (Pest Manag Sci, 2009):

Tests used:
[1] = tested on: Poa pratensis subsp. pratensis; assay: Herbicidal activity against Poa pratensis subsp. pratensis applied using logarithmic sprayer; assay type: functional
[2] = tested on: Festuca rubra; assay: Toxicity against Festuca rubra applied using logarithmic sprayer; assay type: organism-based; conditions: in vivo
[3] = Selectivity index, ratio of ED10 for Festuca rubra L. to ED90 for Poa pratensis subsp. Pratensis
[4] = Ratio of ED50 for Festuca arundinacea to ED50 for Poa pratensis subsp. Pratensis
[5] = Ratio of ED50 for Festuca pratensis to ED50 for Poa pratensis subsp. Pratensis
[6] = Ratio of ED50 for Festuca rubra L. to ED50 for Poa pratensis subsp. Pratensis
[7] = tested on: Poa pratensis subsp. pratensis; assay: Herbicidal activity against Poa pratensis subsp. pratensis applied during spring season using logarithmic sprayer; assay type: functional
[8] = tested on: Festuca rubra; assay: Toxicity against Festuca rubra applied applied during spring season using logarithmic sprayer; assay type: organism-based; conditions: in vivo
[9] = Ratio of ED50 for Lolium perenne to ED50 for Poa pratensis subsp. Pratensis

Structure (SMILES) | ED50 [1] | ED50 [2] | also measured
C#CCOC(=O)[C@@H](C)Oc1ccc(Oc2ncc(Cl)cc2F)cc1 [CLODINAFOP PROPARGYL] | 0.192 kg/ha | 0.923 kg/ha | Selectivity Index [3]: > 1
CCOC(=O)[C@@H](C)Oc1ccc(Oc2nc3ccc(Cl)cc3o2)cc1 [FENOXAPROP-P-ETHYL] | 0.408 kg/ha | 1.137 kg/ha | ED90 [1]: 0.68 kg/ha; Ratio ED50 [4]: > 2; Ratio ED50 [5]: > 2; Ratio ED50 [6]: > 2
COc1cc(OC)nc(NC(=O)NS(=O)(=O)c2nc(C(F)(F)F)ccc2C(=O)O)n1 [FLUPYRSULFURON] | 0.017 kg/ha | 0.024 kg/ha | ED50 [7]: 0.019 kg/ha; ED50 [8]: 0.04 kg/ha; Ratio ED50 [6]: > 2
O=C(O)CNCP(=O)(O)O [GLYPHOSATE] | – | 0.263 L/ha | –
COc1nc(C)nc(NC(=O)NS(=O)(=O)c2cc(I)ccc2C(=O)O)n1 [IODOSULFURON] | 0.184 kg/ha | 0.367 kg/ha | –
CCC(CC)Nc1c([N+](=O)[O-])cc(C)c(C)c1[N+](=O)[O-] [PENDIMETHALIN] | 1.761 L/ha | 3.531 L/ha | –
CCCN(CCC)C(=O)SCc1ccccc1 [PROSULFOCARB] | 2.337 kg/ha | – | –
CCS(=O)(=O)c1nc2ccccn2c1S(=O)(=O)NC(=O)Nc1nc(OC)cc(OC)n1 [SULFOSULFURON] | 0.014 kg/ha | 0.007 kg/ha | Ratio ED50 [9]: > 1
